Assay results from patent publication US20260285850A1, “SUBSTITUTED OXAZOLIDINONES AND IMIDAZOLINONES AS HERBICIDES” (FMC CORPORATION, priority 2023, published 2026).

Columns and labels:
Assay type in all cases: in vivo
[1] = tested on: barnyardgrass (Echinochloa crus-galli); assay: Test A preemergence soil spray, visual injury rating 0-100; settings: 10 days, 0 = no effect, 100 = complete control
How it was run: (§1)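 Greenhouse test: loam/sand pots received a surfactant-containing formulation, as a preemergence directed soil spray or a postemergence spray on young plants. Injury was judged visually at day 10 relative to untreated controls.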

[2] = tested on: blackgrass (Alopecurus myosuroides); assay: as above; settings: 10 days, 0 = no effect, 100 = complete control
How it was run: as §1

corn (Zea mays) [3] = assay: as above; settings: 10 days, 0 = no effect, 100 = complete control
How it was run: as §1

[4] = tested on: green foxtail (Setaria viridis); assay: as above; settings: 10 days, 0 = no effect, 100 = complete control
How it was run: as §1

kochia (Bassia scoparia) [5] = assay: as above; settings: 10 days, 0 = no effect, 100 = complete control
How it was run: as §1

[6] = tested on: oat, wild (wild oat, Avena fatua); assay: as above; settings: 10 days, 0 = no effect, 100 = complete control
How it was run: as §1

[7] = tested on: palmer (palmer amaranth, palmer pigweed, Amaranthus palmeri); assay: as above; settings: 10 days, 0 = no effect, 100 = complete control
How it was run: as §1

[8] = tested on: ragweed (common ragweed, Ambrosia artemisiifolia); assay: as above; settings: 10 days, 0 = no effect, 100 = complete control
How it was run: as §1

[9] = tested on: ryegrass, Italian (italian ryegrass, Lolium multiflorum); assay: as above; settings: 10 days, 0 = no effect, 100 = complete control
How it was run: as §1

soybean (Glycine max) [10] = assay: as above; settings: 10 days, 0 = no effect, 100 = complete control
How it was run: as §1

[11] = tested on: wheat (Triticum aestivum); assay: as above; settings: 10 days, 0 = no effect, 100 = complete control
How it was run: as §1

[12] = tested on: barnyardgrass (Echinochloa crus-galli); assay: Test A postemergence application, visual injury rating 0-100; settings: 10 days
How it was run: as §1

[13] = tested on: blackgrass (Alopecurus myosuroides); assay: as above; settings: 10 days
How it was run: as §1

corn (Zea mays) [14] = assay: as above; settings: 10 days
How it was run: as §1

[15] = tested on: galium (catchweed bedstraw, Galium aparine); assay: as above; settings: 10 days
How it was run: as §1

[16] = tested on: green foxtail (Setaria viridis); assay: as above; settings: 10 days
How it was run: as §1

[17] = tested on: horseweed (Erigeron canadensis); assay: as above; settings: 10 days
How it was run: as §1

kochia (Bassia scoparia) [18] = assay: as above; settings: 10 days
How it was run: as §1

[19] = tested on: oat, wild (wild oat, Avena fatua); assay: as above; settings: 10 days
How it was run: as §1

[20] = tested on: palmer (palmer amaranth, palmer pigweed, Amaranthus palmeri); assay: as above; settings: 10 days
How it was run: as §1

[21] = tested on: ragweed (common ragweed, Ambrosia artemisiifolia); assay: as above; settings: 10 days
How it was run: as §1

[22] = tested on: ryegrass, Italian (italian ryegrass, Lolium multiflorum); assay: as above; settings: 10 days
How it was run: as §1

soybean (Glycine max) [23] = assay: as above; settings: 10 days
How it was run: as §1

[24] = tested on: wheat (Triticum aestivum); assay: as above; settings: 10 days
How it was run: as §1

[25] = tested on: barnyardgrass (Echinochloa crusgalli); assay: Test B flooded paddy test, visual plant response rating 0-100; settings: 250 g ai/ha, Flood, applied to paddy water, evaluated after 13 days
How it was run: (§2)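 Treatment occurs at the 2-leaf stage by adding compound to floodwater standing 3 cm above the soil, a level kept for the whole test. Plants stay in the greenhouse 13 days before visual comparison with controls.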

[26] = tested on: ducksalad (Heteranthera limosa); assay: as above; settings: 250 g ai/ha, Flood, applied to paddy water, evaluated after 13 days
How it was run: as §2

rice (Oryza sativa) = assay: as above; settings: 250 g ai/ha, Flood, applied to paddy water, evaluated after 13 days
How it was run: as §2

[27] = tested on: sedge, umbrella (small-flower umbrella sedge, Cyperus difformis); assay: as above; settings: 250 g ai/ha, Flood, applied to paddy water, evaluated after 13 days
How it was run: as §2

[28] = 31 g ai/ha, postemergence, 0 = no effect, 100 = complete control
[29] = Postemergence, 125 g ai/ha, 0 is no effect, 100 is complete control

CC(C)OC(=O)C1CC(NC(=O)C2(C)CN(c3cc(F)cc(F)c3)C(=O)O2)CO1 (stereo not shown) [Compound 32]
Barnyardgrass plant response rating (0-100) ([1]; 31 g ai/ha): 0
Barnyardgrass plant response rating (0 to 100 scale) ([1]; 125 g ai/ha): 0
Blackgrass plant response rating (0-100) ([2]; 31 g ai/ha): 0
Blackgrass plant response rating (0 to 100 scale) ([2]; 125 g ai/ha): 0
Corn plant response rating (0-100) (corn (Zea mays) [3]; 31 g ai/ha): 0
Corn plant response rating (0 to 100 scale) (corn (Zea mays) [3]; 125 g ai/ha): 10
Foxtail, Green plant response rating (0-100) ([4]; 31 g ai/ha): 0
Foxtail, Green plant response rating (0 to 100 scale) ([4]; 125 g ai/ha): 0
Kochia plant response rating (0-100) (kochia (Bassia scoparia) [5]; 31 g ai/ha): 0
Kochia plant response rating (0 to 100 scale) (kochia (Bassia scoparia) [5]; 125 g ai/ha): 20
Oat, Wild plant response rating (0-100) ([6]; 31 g ai/ha): 0
Oat, Wild plant response rating (0 to 100 scale) ([6]; 125 g ai/ha): 40
Amaranth, Palmer plant response rating (0-100) ([7]; 31 g ai/ha): 0
Amaranth, Palmer plant response rating (0 to 100 scale) ([7]; 125 g ai/ha): 0
Ragweed plant response rating (0-100) ([8]; 31 g ai/ha): 0
Ragweed plant response rating (0 to 100 scale) ([8]; 125 g ai/ha): 0
Ryegrass, Italian plant response rating (0-100) ([9]; 31 g ai/ha): 0
Ryegrass, Italian plant response rating (0 to 100 scale) ([9]; 125 g ai/ha): 80
Soybean plant response rating (0-100) (soybean (Glycine max) [10]; 31 g ai/ha): 20
Soybean plant response rating (0 to 100 scale) (soybean (Glycine max) [10]; 125 g ai/ha): 0
Wheat plant response rating (0-100) ([11]; 31 g ai/ha): 0
Wheat plant response rating (0 to 100 scale) ([11]; 125 g ai/ha): 70
Barnyardgrass plant response rating (0-100) [12, 28]: 0
Barnyardgrass plant response rating (0 to 100 scale) [12, 29]: 90
Blackgrass plant response rating (0-100) [13, 28]: 80
Blackgrass plant response rating (0 to 100 scale) [13, 29]: 100
Corn plant response rating (0-100) (corn (Zea mays) [14]; [28]): 0
Corn plant response rating (0 to 100 scale) (corn (Zea mays) [14]; [29]): 50
Galium plant response rating (0-100) [15, 28]: 50
Galium plant response rating (0 to 100 scale) [15, 29]: 80
Foxtail, Green plant response rating (0-100) [16, 28]: 0
Foxtail, Green plant response rating (0 to 100 scale) [16, 29]: 40
Horseweed plant response rating (0-100) [17, 28]: 0
Horseweed plant response rating (0 to 100 scale) [17, 29]: 0
Kochia plant response rating (0-100) (kochia (Bassia scoparia) [18]; [28]): 40
Kochia plant response rating (0 to 100 scale) (kochia (Bassia scoparia) [18]; [29]): 50
Oat, Wild plant response rating (0-100) [19, 28]: 80
Oat, Wild plant response rating (0 to 100 scale) [19, 29]: 90
Amaranth, Palmer plant response rating (0-100) [20, 28]: 0
Amaranth, Palmer / Pigweed, Palmer plant response rating (0 to 100 scale) [20, 29]: 30
Ragweed plant response rating (0-100) [21, 28]: 30
Ragweed plant response rating (0 to 100 scale) [21, 29]: 50
Ryegrass, Italian plant response rating (0-100) [22, 28]: 20
Ryegrass, Italian plant response rating (0 to 100 scale) [22, 29]: 80
Soybean plant response rating (0-100) (soybean (Glycine max) [23]; [28]): 20
Soybean plant response rating (0 to 100 scale) (soybean (Glycine max) [23]; [29]): 60
Wheat plant response rating (0-100) [24, 28]: 80
Wheat plant response rating (0 to 100 scale) [24, 29]: 90
Plant response rating, Barnyardgrass (0 to 100 scale, 0 is no effect and 100 is complete control) [25]: 0
Plant response rating, Ducksalad (0 to 100 scale, 0 is no effect and 100 is complete control) [26]: 0
Plant response rating, Rice (0 to 100 scale, 0 is no effect and 100 is complete control) (rice (Oryza sativa)): 0
Plant response rating, Sedge, Umbrella (0 to 100 scale, 0 is no effect and 100 is complete control) [27]: 0
